Assay results from patent US20250136583A1, “NOVEL SALT FORMS OF ISOCHROMAN-IMIDAZOLE STRUCTURED ALPHA-2A ADRENOCEPTOR AGONIST” (ORION CORPORATION, priority 2022, published 2025).
Where a name gives a salt, the structure may show the parent alone.

Assays:
[1] = Physical stability of the salts (storage at elevated temperature and relative humidity, re-analysis by XRPD); assay type: physicochemical; details: for Form after stability / Physical stability: solids exposed for 2 or 3 weeks at 40° C. and 70-80% relative humidity; for Form after stability: XRPD; for Physical stability: re-analyzed by XRPD
Experimental: XRPD measurements were performed with the X-ray powder diffractometer Bruker D8 Advance at room temperature, using a copper filled X-ray tube (40 kV×40 mA) as the X-ray source, CuKα (λ=1.5418 Å), a 0.6 mm divergence slit, 2.5° Soller slits on both the primary and secondary beams and the 1-dimensional LynxEye detector (with aperture angle of 2.91593°). Data collection was done in the range of 3.8-33° 2θ with 0.02° increments, at a scan speed of 0.3°/s.
A stability test was carried out for all crystalline salt forms resulted from the salt screen by exposing the solids for 2 or 3 weeks at 40° C. and 70-80% relative humidity. After exposure, the solids were re-analyzed by XRPD, followed by physical stability assessment.

[2] = Chemical stability of the salts (stress at 60° C. and 75% relative humidity, purity by UHPLC); assay type: physicochemical; details: for Purity (%) of 1 day stress samples / Difference between reference and 1 day stressed sample: 1 day at 60° C. and 75% relative humidity; for Purity (%) of 1 day stress samples / Purity (%) of 14 day stress samples / Purity (%) of reference: UHPLC; for Difference between reference and 1 day stressed sample / Difference between reference and 14 day stressed sample: purity difference, in %; for Purity (%) of 14 day stress samples / Difference between reference and 14 day stressed sample: 14 days at 60° C. and 75% relative humidity; for Purity (%) of reference: unstressed sample; for Chemical stability (in words): summary statement
Experimental: The purity analyses were performed using Agilent UHPLC equipment with PDA/DAD detector at 210 nm wavelength and reverse phase liquid chromatography column Acquity UPLC HSS T3, 100×3.0 mm, 1.8 μm (Waters). The chromatography was performed with gradient run using acetonitrile and phosphate buffer (pH 3.0) as eluents.
The chemical stability of various salts of compound (I) was determined by stressing the salts for 1 and 14 days at 60° C. and 75% relative humidity. The unstressed sample was used as an reference. The purity of the samples were analyzed using UHPLC, and the purity difference between the stressed and reference was calculated.

alpha2A receptor = target: T1, alpha2A receptor (Homo sapiens, UniProt P08913); details: background, WO 2013/150173; cited from earlier work
T1 sequence (P08913 1-465): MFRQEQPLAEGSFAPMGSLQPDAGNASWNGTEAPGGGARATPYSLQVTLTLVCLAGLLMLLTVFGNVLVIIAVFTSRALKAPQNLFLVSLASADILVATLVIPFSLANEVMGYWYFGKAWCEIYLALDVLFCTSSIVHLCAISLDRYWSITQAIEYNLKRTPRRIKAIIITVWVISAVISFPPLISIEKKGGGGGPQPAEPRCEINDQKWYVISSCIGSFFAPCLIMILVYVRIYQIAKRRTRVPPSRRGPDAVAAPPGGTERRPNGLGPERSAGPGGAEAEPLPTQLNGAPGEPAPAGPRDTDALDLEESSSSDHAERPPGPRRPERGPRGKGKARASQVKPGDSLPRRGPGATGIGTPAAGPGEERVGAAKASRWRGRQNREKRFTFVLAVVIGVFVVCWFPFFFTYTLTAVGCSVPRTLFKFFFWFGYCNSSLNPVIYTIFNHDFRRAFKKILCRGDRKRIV

[3] = listed as Napthalene-1,5-disulfonic acid salt

SMILES | Form after stability [1] | Physical stability [1] | Purity (%) of 1 day stress samples [2] [%] | Difference between reference and 1 day stressed sample [2] | Purity (%) of 14 day stress samples [2] [%] | Difference between reference and 14 day stressed sample [2] | Purity (%) of reference [2] [%] | other results
COc1cccc2c1CCOC2C1=NCCN1 (centres unmarked) [Hydrochloric acid salt Form 1, 2-(5-methoxyisochroman-1-yl)-4,5-dihydro-1H-imidazole] | Form 1 | Stable | 89.8 | 8.7 | 69.0 | 29.5 | 98.6 | Physical stability ([1]; listed as hydrochloric acid): remained stable
COc1cccc2c1CCOC2C1=NCCN1 [L-tartaric acid salt Form 1, 2-(5-methoxyisochroman-1-yl)-4,5-dihydro-1H-imidazole] | Form 1 | Stable | 97.9 | 1.0 | 90.3 | 8.7 | 99.0 | Physical stability ([1]; listed as L-tartaric acid (form 1)): remained stable
COc1cccc2c1CCOC2C1=NCCN1 [L-tartaric acid salt Form 2, 2-(5-methoxyisochroman-1-yl)-4,5-dihydro-1H-imidazole] | Form 1 | Unstable | 97.5 | 1.0 | 88.3 | 10.3 | 98.6 | Crystalline form conversion on storage ([1]; 40° C., 75% RH for 3 weeks): turned into form 1; Form after stability ([1]; listed as L-tartaric acid (form 2)): completely
COc1cccc2c1CCOC2C1=NCCN1 (centres unmarked) [Maleic acid salt Form 1, 2-(5-methoxyisochroman-1-yl)-4,5-dihydro-1H-imidazole] | Form 1 | Stable | 64.0 | 35.7 | 33.3 | 66.4 | 99.6 | Physical stability ([1]; listed as maleic acid): remained stable
COc1cccc2c1CCOC2C1=NCCN1 (centres unmarked) [Tasipimidine, 2-(5-methoxyisochroman-1-yl)-4,5-dihydro-1H-imidazole] | – | – | – | – | – | – | – | Activity on adrenergic alpha2 receptors, especially alpha2A receptor (alpha2A receptor): agonistic activities

The next lines start with results.

Form after stability [1] | Physical stability [1] | Purity (%) of 1 day stress samples [2] [%] | Difference between reference and 1 day stressed sample [2] | Purity (%) of 14 day stress samples [2] [%] | Difference between reference and 14 day stressed sample [2] | Purity (%) of reference [2] [%] | SMILES | other results
Form 1 | Stable | 96.6 | 1.5 | 72.7 | 25.5 | 98.2 | COc1cccc2c1CCOC2C1=NCCN1 (centres unmarked) [Malonic acid salt Form 1, 2-(5-methoxyisochroman-1-yl)-4,5-dihydro-1H-imidazole] | Physical stability ([1]; listed as malonic acid): remained stable
Form 1 | Stable | 97.7 | 1.6 | 35.6 | 63.6 | 99.2 | COc1cccc2c1CCOC2C1=NCCN1 (centres unmarked) [Mucic acid salt Form 1, 2-(5-methoxyisochroman-1-yl)-4,5-dihydro-1H-imidazole] | Physical stability ([1]; listed as mucic acid): remained stable
Form 1 | Stable | – | – | – | – | – | COc1cccc2c1CCOC2C1=NCCN1 (centres unmarked) [Naphthalene-1,5-disulfonic acid salt Form 1] [2-(5-methoxyisochroman-1-yl)-4,5-dihydro-1H-imidazole] | Physical stability ([1]; listed as naphthalene-1,5-disulfonic acid): remained stable; Purity (%) of 1 day stress samples [2, 3]: 96.1%; Difference between reference and 1 day stressed sample [2, 3]: 0.2; Purity (%) of 14 day stress samples [2, 3]: 95.7%; Difference between reference and 14 day stressed sample [2, 3]: 0.6; Chemical stability (in words) [2]: good chemical stability; Purity (%) of reference [2, 3]: 96.3%
Form 1 | Stable | 97.9 | −0.2 | 97.9 | −0.2 | 97.7 | COc1cccc2c1CCOC2C1=NCCN1 (centres unmarked) [Oxalic acid salt Form 1, 2-(5-methoxyisochroman-1-yl)-4,5-dihydro-1H-imidazole] | Physical stability ([1]; listed as oxalic acid): remained stable; Chemical stability (in words) [2]: good chemical stability
